According to paper PMC8932751 (Clinical and Translational Science, 2021):

Assays:
[1] = investigation cohort, 70 patients
[2] = atorvastatin and its metabolites; cited from earlier work

## CC(C)c1c(C(=O)Nc2ccccc2)c(-c2ccccc2)c(-c2ccc(F)cc2)n1CC[C@@H](O)C[C@@H](O)CC(=O)O [atorvastatin]
Exponential residual error
  σ (SD), residual variability: 0.085
Final PopPK model
  ωQ (SD), between-subject variability: 0.715
  ωVc (SD), between-subject variability: 1.18
  ωVp (SD), between-subject variability: 0.508
[1]
  patients with myalgia at any time during follow-up: 8.6%
[2]
  fraction of the oral dose excreted in urine: less than 1%
